assay: Human HepG2 cell viability assay in 384 well format; assay type: toxicity, cell-based; design: dose 125 nL, time 70.5 hour; cytotoxicity at 70.5 h: concentration not given beside the values; settings: HepG2 cells, read-out: Inhibition

SMILES | cytotoxicity at 70.5 h
CCc1nc(C)cc(NC(C)C(=O)Nc2cc(F)ccc2C)n1 (stereo unspecified) | -15.5%
CCc1cc(C(=O)N2CCC(C3CCN(c4ncccn4)CC3)C2)on1 (stereo unspecified) | 2.57%
Nc1cc(C(=O)N2CCCC3(C=Cc4ccccc4O3)CC2)ccn1 (stereo unspecified) | -4.49%
O=C(CN1CCN(CC2CCOc3ccccc3C2)CC1)N1CCCC1 (stereo unspecified) | -13%
Cc1cc(C(=O)N(C)Cc2cnn(C)c2)c(NC(=O)C(C)(C)C)s1 | -12.1%
CNc1nc(C(=O)N2CCN(c3ccc(Cl)c(Cl)c3)CC2)cs1 | -6.48%
CCC(=O)NC(CC)c1ccccc1C (stereo unspecified) | -5.25%
Oc1ccc(N2CCC(Cc3ccccc3)CC2)nn1 | -4.56%
Cc1cc(C(=O)N(C)Cc2ccn[nH]2)c(NC(=O)C(C)(C)C)s1 | -9.88%
COc1ccc2c(c1)OCC(Cc1cnc(N)c(C)c1)C2 (stereo unspecified) | 1.49%
CCn1c(C2CCCN(Cc3ccc(F)cc3Cl)C2)nn(C)c1=O (stereo unspecified) | 6.43%
COCCOC1CCN(C(C(=O)O)c2c(Cl)cccc2OC)CC1 (stereo unspecified) | -10.5%
Cn1ncc(NC(=O)Cn2ccc(-c3cccc(F)c3)n2)n1 | 1.6%
CCOC(=O)c1cc2c(=O)[nH]c(=O)n(CCc3ccccc3)c2nc1C | -7.68%
COCC(=O)N1CCC(C(=O)Nc2ccc(S(N)(=O)=O)cc2)CC1 | -7.49%
Cc1ccc(NC(=O)c2cc3c(=O)n(C)c(=O)n(C)c3nc2C)cc1Cl | 1.87%
Cc1ccc2c(c1)SCC(=O)N2CC(=O)N1CCC[C@H]1c1nc(C)no1 | -5.13%
Cn1c(CN2CCCC2)nnc1C1CCCN(C(=O)CN2CCCC2)C1 (stereo unspecified) | 2.51%
CSc1ncccc1C(=O)N1C[C@H]2CC[C@@H]1CN(C(=O)N(C)C)C2 | -7.79%

SMILES | cytotoxicity at 70.5 h
Cc1cc2c(c(-c3cnccn3)c1)OC(CN)C2 (stereo unspecified) | -6.44%
Cc1ccc(O)c(CN2CCn3nc(C(=O)N4CCCC4)cc3C2)n1 | 0.113%
COc1ccc(-c2cccc3c2OC(CN)C3)cc1F (stereo unspecified) | 5.9%
c1cncc(CCc2nc(C3CC3)nn2-c2ccc3c(c2)OCCO3)c1 | 21.8%
CSCCc1c(-c2ccccc2)ncn1CC(C)(C)N1CCCC1 | -10.9%
Cc1ccc(N2CCC(C(O)c3cccs3)CC2)nn1 (stereo unspecified) | -4.12%
Cc1c[nH]c(CN2CCCn3nc(CNS(C)(=O)=O)cc3C2)n1 | 16%
Cc1ccc(OCC2CCCN(C(=O)c3csc(CN(C)C)n3)C2)cc1 (stereo unspecified) | -4.88%
CCC[C@H]1CN(CCS(C)(=O)=O)C[C@@H]1NC(=O)c1ccccn1 | -5.77%
CC(=O)NCc1nnc2n1CCN(c1nc(C)nc3sccc13)CC2 | -7.13%
O=C(N[C@@H]1CCNC[C@H]1O)c1ccccc1OC(F)(F)C(F)F | 0.818%
C=C(C)CNC(=O)C1CCCN(C2CCN(C(C)C)CC2)C1 (stereo unspecified) | -2.47%
CCNC(=O)[C@@H]1C[C@@H](NC(=O)Cc2cc(C)no2)CN1Cc1ccsc1 | -12.7%
COc1ccccc1OCc1cc(C(=O)N2C[C@@H](C)O[C@@H](C)C2)n[nH]1 | -11.2%
CC(C)c1cc(N(C)Cc2noc(C3CCCC3)n2)n2nccc2n1 | -13.6%
Cn1cc(C(=O)N2CCCCC2CCc2ccccc2)cn1 (stereo unspecified) | -10.6%
CC(C)[C@@H](C)NC(=O)N1CCn2nc(C(=O)NCCN(C)C)cc2C1 | -0.748%
Cc1ncsc1C(=O)N1CCc2[nH]nc(-c3ccc4c(c3)OCO4)c2C1 | 13.6%
Cc1ccc([C@@H]2CN(S(=O)(=O)c3cc(C)ccc3F)C[C@H]2N(C)C)cc1 | -8.32%

SMILES | cytotoxicity at 70.5 h
COc1cccc(OCC2CCCN(Cc3ncc[nH]3)C2)c1 (stereo unspecified) | 33.4%
CC(C1CCN(Cc2cccc(OC(F)F)c2)CC1)N1CCOCC1 (stereo unspecified) | -9.64%
Cc1c(-c2n[nH]c3c2CN(CC2CCOC2)CC3)cccc1C(F)(F)F (stereo unspecified) | -6.06%
CCNc1nc(C)c(C(=O)N(C)Cc2noc(C)n2)s1 | 11.7%
CC(C)n1cc(C(=O)NCC(CO)Cc2cccs2)cn1 (stereo unspecified) | -8.73%
COCCN(C/C=C/c1ccccc1)Cc1[nH]cnc1C | 1.05%
CN1C(=O)CC(C(=O)O)C12CCN(c1ccc3ccccc3n1)CC2 (stereo unspecified) | -4.07%
CCCc1n[nH]cc1C(=O)N1CCCC(c2nccn2CC2CC2)C1 (stereo unspecified) | -6.16%
O=C(NCc1cc2n(n1)CCCN(Cc1ccc(CO)o1)C2)C1CCC1 | 18.2%
O=C1O[C@@H]2CN(S(=O)(=O)N3CCCC3)C[C@@H]2N1CCc1cccc(Cl)c1 | 0.28%
COc1ccc(C(=O)N2CCN(C(=O)c3csc(C(C)C)n3)CC2)cc1 | 28%
O=C(CCn1cncn1)N1C[C@H]2CC[C@@H]1CN(Cc1ccncc1)C2 | 16.7%
CN(Cc1ccc2nonc2c1)C(=O)CCc1cc2n(n1)CCCNC2 | -6.8%
CCN(C)C[C@@H]1CN(S(=O)(=O)c2ccc(OC)cc2)C[C@@H]1CO | 10.4%
O=C1CCNC(=O)N1CC(=O)N1CCC1c1ccc(F)cc1 (stereo unspecified) | -10.7%
CCC(CO)N(Cc1ccccn1)C(=O)c1ccc(F)c(F)c1 (stereo unspecified) | -6.83%
Cc1nc(O)cc(CN2C[C@H](NC(=O)C3CCC3)[C@@H](C3CC3)C2)n1 | -3.55%
CC(C)[C@H]1CN(Cc2c[nH]cn2)C[C@@H]1NC(=O)CC1CCC1 | -6.54%
